Results from publication PMC9703152 (Journal of hepatology, 2020).
Structures can show the parent of a compound that is named as a salt. Where two headings read alike, the source gives them in different places.

Tests used:
[1] = Intracellular concentrations of phosphorylated forms in HepG2.2.15 cells; format: in vitro ADME, human
HBV [2] = conditions: 90 mg/kg/day, 3-week administration, HBV-infected PXB-mice; cited from earlier work
HBVWT^D1 [3] = assay: microbe, parasite or virus in culture; conditions: Hepatitis B virus, HepG2.2.15, read-out: IC50^qPCR_cell
HBVWT^D1 [4] = conditions: high concentrations (100 and 1,000 nM), HepG2.2.15 cells
[5] = Cytotoxicity, MTT assay, Huh7 cells; format: cell-based; conditions: human
[6] = Cytotoxicity, MTT assay, PXB-cells; format: cell-based; conditions: human
[7] = Cytotoxicity, MTT assay, HepG2 cells; format: cell-based; conditions: human
[8] = Cytotoxicity, LDH release assay, primary hepatocytes; conditions: human
[9] = Cytotoxicity, Neutral Red staining assay, primary hepatocytes; conditions: human
HBVWT^C2 [10] = assay: Anti-HBV qPCR assay in HBV-exposed PXB-cells; format: cell-based, Hepatitis B virus; conditions: for IC50: Hepatitis B virus, read-out: IC50^qPCR_cell; for IC95^qPCR_sup / IC95^qPCR_cell: PXB-cells; for IC95^qPCR_sup: HBVWT^C2, HBV-DNA in culture medium blocked by 95%; for IC95^qPCR_cell: HBVWT^C2, intracellular HBV-DNA blocked by 95%
[11] = Cytotoxicity, MTT assay, MT-2 cells; format: cell-based; conditions: human
HBVWT^D1 [12] = assay: microbe, parasite or virus in culture; format: cell-based, Hepatitis B virus
[13] = tested on: mtDNA production in human PBMCs
HBVWT^C2 [14] = assay: Antiviral effect in chronically HBVWT^C2-infected PXB-mice; format: in vivo; conditions: for reduction of serum HBVWT^C2-DNA copies: day 21
[15] = tested on: mtDNA production in PXB-cells
[16] = Body weights and serum human albumin in treated PXB-mice; format: in vivo
[17] = Acid resistance: anti-HBV activity after pH 2 exposure; format: physicochemical; conditions: pH 2, 5 and 60 minutes at 37 °C, then tested in HepG2.2.15 cells
[18] = Intracellular concentration of compound in HepG2.2.15 cells; format: in vitro ADME, human; conditions: 100 µM, 6 hours incubation
HBV [19] = assay: Combination of E-CFCP with GLS4, HBV-DNA production by HepG2.2.15 cells; format: cell-based, Hepatitis B virus
[20] = tested on: MOT-4 cells and human primary peripheral blood mononuclear cells; assay: Cell proliferation assays in MOT-4 cells and human PBMCs; format: cell-based
HIV-1LAI = assay: Anti-HIV assay; format: cell-based; conditions: Human immunodeficiency virus 1, read-out: IC50^MTT
[21] = 10 µM, 6 days of culture without compound

With `C[C@@H](Cn1cnc2c(N)ncnc21)OCP(=O)(O)OP(=O)(O)OP(=O)(O)O` [TFV-DP] the “intracellular phosphorylated form (in words)” value [1] was “not detected by day 3 and beyond”.
In the case of `CC(C)OC(=O)OCOP(=O)(CO[C@H](C)Cn1cnc2c(N)ncnc21)OCOC(=O)OC(C)C` [TDF, tenofovir disoproxil fumarate], the viral load reduction (HBV [2]) is given as “approximately 1.5 logs”.
Work on `N#C[C@]1(CO)/C(=C/F)[C@@H](n2cnc3c(=O)[nH]c(N)nc32)C[C@@H]1O` [Z-CFCP] yielded an IC50 (HBVWT^D1 [3]) of 0.414 µM.
For `CC(C)OC(=O)[C@H](C)N[P@](=O)(CO[C@H](C)Cn1cnc2c(N)ncnc21)Oc1ccccc1` [TAF, tenofovir alafenamide, reference compound], the “inhibition of HBV-DNA production” value (HBVWT^D1 [4]) was < 100%, the CC50 [5] was 34 µM and the CC50 [6] was 8.2 µM. For the same compound, the CC50 [7] was 22 µM, the CC50 [8] was 97 µM and the CC50 [9] was 26 µM. For the same compound, the IC50 (HBVWT^C2 [10]) was 0.59 nM, the “IC95^qPCR_sup” value (HBVWT^C2 [10]) was 0.09 µM and the “IC95^qPCR_cell” value (HBVWT^C2 [10]) was 0.513 µM. For the same compound, the CC50 [11] was 21 µM and the inhibition at 1 µM (HBVWT^D1 [12]; Hepatitis B virus, HepG2.2.15, read-out: HBV-DNA production inhibition) was 90%.
For `Nc1ccn([C@H]2CC[C@@H](CO)O2)c(=O)n1` [zalcitabine/ddC, zalcitabine], the “inhibition of mtDNA production (in words)” value [13] was “strongly blocked mtDNA production”.
In the case of `C=C1[C@H](CO)[C@@H](O)C[C@@H]1n1cnc2c(=O)[nH]c(N)nc21` [ETV, entecavir], the Mitotox50 ([13]; human) is reported as 40.4 µM, the “inhibition of HBV-DNA production” value (HBVWT^D1 [4]) is reported as < 100% and the “reduction of serum HBVWT^C2-DNA copy numbers” value (HBVWT^C2 [14]; 0.02 mg/kg/day, two weeks, at conclusion of administration (day 14)) is reported as 2.0±0.07 log. For the same compound, the IC50 (HBVWT^C2 [10]) was 0.13 nM, the “IC95^qPCR_sup” value (HBVWT^C2 [10]) was 0.079 µM and the “IC95^qPCR_cell” value (HBVWT^C2 [10]) was 0.859 µM. For the same compound, the HBV-DNA synthesis blockade (HBVWT^D1 [12]; [21]) was < 80% and the Mitotox50 ([15]; human) was 35.2 µM.
With `N#C[C@]1(CO)/C(=C\F)[C@@H](n2cnc3c(=O)[nH]c(N)nc32)C[C@@H]1O` [E-CFCP] the Mitotox50 ([13]; human PBMCs, mtDNA production) was 38.2 µM, the “changes in body weights or serum human albumin levels” value ([16]; 0.2 mg/kg/day for 2 weeks, HBVWT^C2-infected PXB-mice) was “No significant changes” and the “changes of body weights and human serum albumin over 8 weeks” value ([16]; once daily 0.2 mg/kg/day, E-CFCP-receiving vs ETV-receiving mice) was “no significant changes”. The “inhibition of HBV-DNA production” value (HBVWT^D1 [4]) was 100%, the CC50 ([5]; Huh7 cells) was > 500 µM and the CC50 ([6]; PXB-cells) was > 500 µM. The “anti-HBV activity after pH 2 exposure” value [17] was “comparable to pH 2-unexposed E-CFCP”, the CC50 ([7]; HepG2 cells) was 115 µM and the CC50 ([8]; primary hepatocytes) was > 100 µM. For the same compound, the intracellular concentration [18] was “approximately 200 pmol/2×10^6 cells”, the “reduction of serum HBVWT^C2-DNA copies” value (HBVWT^C2 [14]; 0.02 mg/kg/day for two weeks) was 2.2±0.06 log and the “persistence of reduction after administration cessation” value (HBVWT^C2 [14]; 0.2 mg/kg/day) was ≥ 3 weeks. For the same compound, the “reduction of serum HBVWT^C2-DNA copies” value (HBVWT^C2 [14]; 0.2 mg/kg/day for two weeks) was 2.6±0.1 log, the “persistence of reduction following treatment cessation” value (HBVWT^C2 [14]; PXB-mice, 0.02∼0.2 mg/kg/day) was 1–3 weeks and the “reduction of HBVWT^C2-viremia” value (HBVWT^C2 [14]; once-daily peroral, 2 weeks, 0.02∼0.2 mg/kg/day) was 2–3 logs. The IC50 (HBVWT^D1 [3]) was 0.0018 µM, the “combination effect with GLS4 (Chou-Talalay Method)” value (HBV [19]; 1 and 10 nM E-CFCP with GLS4 at the same concentration) was “synergism was observed” and the “combination effect with GLS4 (Chou-Talalay Method)” value (HBV [19]; 100 and 1,000 nM E-CFCP with GLS4 at the same concentration) was “no synergism was detected”. For the same compound, the CC50 ([9]; primary hepatocytes) was > 100 µM, the IC50 (HBVWT^C2 [10]) was 0.01 nM and the “IC95^qPCR_sup” value (HBVWT^C2 [10]) was 0.0035 µM. For the same compound, the “IC95^qPCR_cell” value (HBVWT^C2 [10]) was 0.339 µM, the “cell proliferation safety profile (in words)” value [20] was “highly favorable safety profiles” and the CC50 ([11]; MT-2 cells) was 306 µM. For the same compound, the IC50 (HIV-1LAI) was 0.205 ± 0.0238 µM, the HBV-DNA synthesis blockade (HBVWT^D1 [12]; [21]) was 100% and the HBV-DNA synthesis blockade (HBVWT^D1 [12]; 10 µM, 16 days of culture without compound) was > 80%. The “% inhibition of HBVWT^D1-DNA production” value (HBVWT^D1 [12]; 10 µM, exposed 11 days, 14 days of culture without compound) was > 90%, the “persistence of anti-HBV activity (>80% Inhibition) after compound removal” value (HBVWT^D1 [12]; HepG2.2.15 cells) was ~16 days and the Mitotox50 ([15]; PXB-cells, mtDNA production) was 29.6 µM.
In the case of `C=C1C(n2cnc3c(=O)[nH]c(N)nc32)CC(O)C1(C#N)CO` (stereo not drawn) [CMCdG], the “inhibition of mtDNA production (in words)” value ([13]; human PBMCs and PXB-cells) is reported as “non-toxic”.
